# Laboratory results as given in patent EP0516725B1, “NEW USE OF LINOMIDE (R)” (Pharmacia AB (reg.number 556131-9608), priority 1990, dated 1991).
# Experiments:
# [1] = tested on: spleen T lymphocyte subpopulations; assay: Spleen T lymphocyte subpopulations by direct immunofluorescence after treatment of mice; assay type: in vivo, C57B1/6 mice; conditions: 160 mg/kg/day in the drinking water for 4 days
# Protocol: C57B1/6 mice were given Linomide® (160 mg/kg/day) in the drinking water for 4 days. Control animals were given ordinary drinking water. […] 134:3956, 1985] and examined for the expression of cell surface markers by direct immunofluorescence. The following FITC-labeled monoclonal antibodies were used: HO-134 (Thy 1.2), GK 1.5 (CD4) and 19. 178c (CD8) [for reference to antibodies see Kalland, T.: Regulation of NK progenitors: Studies with a novel immunmodulator with distinct effects at the precursor level, J. Immunol. 144:4472-6, 1990]. The number of positive cells was determined by counting 400 cells in an epifluoroscence equipped Leitz microscope. Values represent mean ± SD of three mice.
# [2] = Half life in cynomolgus monkeys; assay type: in vivo
# Half life in rats = conditions: rat, in vivo
# YAC-1 cells = assay: Spleen NK activity, conventional 51Cr-release assay after treatment of mice; conditions: 160 mg/kg/day in the drinking water for four days; for % CYTOTOXICITY: 3 mice
# Half life in humans = conditions: human, in vivo
# Half life in mice = assay type: in vivo
# SIVsm = SIVsm infection of cynomolgus monkeys (body weight, CD4 cells, virus isolation, clinical state); conditions: result in words
# From the text: Nine cynomolgus monkeys (Macaca Fascicularis) were used in this study. The mean body mass was 2600 g and the range was 2260 to 2930 g. The monkeys were housed in single cages in a biosafety level three facility. […] The absence of pre-existing retrovirus was further investigated by cocultivating monkey PBMC (=peripheral blood mononuclear cells) with human PHA-stimulated PBMC and testing of culture supernatants for reverse transcriptase activity.
# Intraperitoneal treatment with Linomide® or NaCl started four days before challenge with live virus and subsequently every day (not during weekends) subcutaneosly during the time of follow-up. The follow-up is 75 days after live virus challenge. Monkeys L1-3 were treated with a low dose Linomide® 0.3 mg/kg bw x 2 Monkeys L4-6 were treated with a high dose Linomide® 3 mg/kg bw x 2 Monkeys L7-9 were given sodium chloride x 2 All monkeys were challenged with 10-100 animal ID₅₀ of live SIVsm. Animals were sacrificed when they became moribund.
# T-lymphocyte subsets in peripheral blood were determined by immunofluorescence as previously described [Putkonen, P., Warstedt, K., Thorstensson, R., Benthin, R., Albert, J., Lundgren, B., Öberg, B., Norrby, E., Biberfeld, G.: Experimental infection of cynomolgus monkeys (Macaca Fascicularis with simian immunodeficiency virus (SIVsm), J. AIDS 1989:2, 359-365]. Peripheral blood samples were incubated with FITC-conjugated anti-CD4 (OKT4, Ortho) and anti-CD8 (Leu2, Becton Dickinson). The samples were analyzed in a Spectrum III flow cytometer (Ortho Diagnostics).
# [3] = spleen cells, mean ± SD of three mice
smiles,measurement,setting,value
"CN(C(=O)c1c(O)c2ccccc2n(C)c1=O)c1ccccc1 [Linomide®, N-phenyl-N-methyl-1,2-dihydro-4-hydroxy-1-methyl-2-oxo-quinoline-3-carboxamide]",% Fluorescent cells CD4,[1]; [3],28±2%
same,% Fluorescent cells CD8,[1]; [3],10±3%
same,% Fluorescent cells Thy 1.2,[1]; [3],42±5%
same,distribution of T lymphocyte subpopulations,[1]; result in words,do not significantly altler the distribution of T lymphocyte subpopulations
same,half life,[2],six
same,half-life,Half life in rats,24 h
same,% CYTOTOXICITY,YAC-1 cells; Effector cell: Target cell ratio 25:1,14±4%
same,% CYTOTOXICITY,YAC-1 cells; Effector cell: Target cell ratio 50:1,20±4%
same,% CYTOTOXICITY,YAC-1 cells; Effector cell: Target cell ratio 100:1,29±5%
same,NK activity,YAC-1 cells; result in words,significantly enhances NK activity
same,half-life,Half life in humans,~48 h
same,half life,Half life in mice,two
same,qualitative virus isolation assay,"SIVsm; all monkeys (low dose, high dose and control), 14 days after challenge",virus could be isolated from all monkeys
same,body weight,"SIVsm; high dose group (3 mg/kg bw x 2), one monkey",dramatic reduction in body weight
same,percentage of CD4⁺ cells in peripheral blood,SIVsm; low dose (0.3 mg/kg bw x 2),essentially unaltered
same,body weight,"SIVsm; monkeys L1-3, 0.6 mg/kg/day",Only a slight weight reduction
same,clinical condition,SIVsm; monkeys L1-3 = low dose (0.3 mg/kg bw x 2),remained clinically healthy
